In patent US10730856B2, “Benzimidazole derivatives as EP4 ligands” (BAYER PHARMA AKTIENGESELLSCHAFT, priority 2013, dated 2020):

Biological target: human EP4 receptor (Homo sapiens (Human), UniProt P35408)
Assay: hEP4 antagonism test (cAMP HTRF, PGE2-stimulated hEP4-expressing cells)
Format: cell-based
Conditions: PGE2-induced stimulation of cAMP production, cells expressing the EP4 receptor; read-out: inhibition of PGE2-induced cAMP production in cells expressing the EP4 receptor, IC50
From the text: The antagonistic action can be determined by an antagonism assay (see Example 3.2.1 of the biological examples).
3. Detection of the Antagonism of the Human Prostaglandin E2 (Subtype ER4) Receptor Signal
Detection of the Antagonization of the hEP4 Signal
Binding of the agonist prostaglandin E2 (PGE2) to the EP4 subtype of the human hPGE2-R (hEP4-R) induces activation of membrane-bound adenylate cyclases and thus the formation of cAMP. In the presence of the phosphodiesterase inhibitor IBMX, this cAMP accumulates intracellularly and is, after cell lysis, employed in a competitive detection method. In this method, it competes with a fluorescently labelled cAMP (cAMP-d2) for binding to an anti-cAMP antibody labelled with an Eu cryptate. In the absence of cellular cAMP, a complex between the Eu-cryptate-labelled anti-cAMP antibody and the cAMP-d2 molecule is formed which, after excitation at 337 nm, allows a FRET-based (FRET=fluorescence resonance energy transfer) enery transfer to the cAMP-d2 tracer and results in a long-lasting fluorescence signal (emission at 665 and 620 nm). This signal is time-resolved, i.e. measured in a suitable measuring device once the background fluorescence has subsided (time resolved; TR-FRET). Additionally, well-ratio determination (emission 665 nm/emission 620 nm*10 000) allows variations in the individual measurements in the added amounts of detection reagents to be normalized.
Administration of prostglandin E2 and increase of intracellular cAMP reduces the FRET signal which increases again if the substance is antagonistically active.
3.2.1 Test for Antagonism (Figures Per Well of a 384-Well Plate):
4 μl of a suspension of hEP4-expressing cells (2500 cells/well) already comprising the cAMP-D2 tracer are added to the substance solutions (50 nl; 100% DMSO) initially charged in a test plate. After 20 minutes of pre-incubation at room temperature, 2 μl of a 3×PGE2 solution are added and the mixture is incubated in the presence of an EC80 concentration of the agonist (0.4 nM) for a further 60 min at room temperature (volume: ˜6 μl), and the whole reaction is then stopped by addition of 2 μl of lysis buffer (volume: ˜8 μl). After a further 20 min at room temperature, the cell lysate is measured in accordance with the instructions of the manufacturer in a measuring instrument suitable for TR-FRET (compare cAMP HTRF assay kit: Cisbio International 62AM6PEJ high range)

Sequence of human EP4 receptor (P35408 whole entry): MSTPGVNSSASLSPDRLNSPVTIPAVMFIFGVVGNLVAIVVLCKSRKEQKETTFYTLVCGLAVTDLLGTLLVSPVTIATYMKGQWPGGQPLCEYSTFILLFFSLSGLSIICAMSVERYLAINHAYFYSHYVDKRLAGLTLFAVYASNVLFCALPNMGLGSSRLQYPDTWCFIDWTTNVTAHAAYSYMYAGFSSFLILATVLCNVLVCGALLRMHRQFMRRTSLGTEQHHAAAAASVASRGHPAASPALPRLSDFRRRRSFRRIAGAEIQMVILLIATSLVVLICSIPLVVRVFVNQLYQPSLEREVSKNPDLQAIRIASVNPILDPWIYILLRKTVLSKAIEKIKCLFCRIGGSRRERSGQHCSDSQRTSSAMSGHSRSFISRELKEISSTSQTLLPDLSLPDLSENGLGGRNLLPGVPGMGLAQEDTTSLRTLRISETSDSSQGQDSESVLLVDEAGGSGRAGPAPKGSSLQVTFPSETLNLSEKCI

SMILES	IC50 [nM]
CCn1c2ccc(-c3nc4cc(C(=O)O)ccc4n3CCOC)cc2c2cc(C)cc(F)c21 [Example 10, 2-(9-Ethyl-8-fluoro-6-methyl-9H-carbazol-3-yl)-1-(2-methoxyethyl)-1H-benzimidazole-5-carboxylic Acid]	~1.5

Same assay, conditions: hEP4-expressing cells, PGE2 at EC80 (0.4 nM), cAMP TR-FRET; read-out: hEP4 antagonization IC50

SMILES	IC50 [nM]
CCn1c2ccc(Br)cc2c2cc(-c3nc4c(C)c(C(=O)OC)ccc4n3CCOC)ccc21 [Example 1, Methyl 2-(6-bromo-9-ethyl-9H-carbazol-3-yl)-1-(2-methoxyethyl)-4-methyl-1H-benzimidazole-5-carboxylate]	32
CCn1c2ccc(Br)cc2c2cc(-c3nc4c(C)c(C(=O)O)ccc4n3CCOC)ccc21 [Example 2, 2-(6-Bromo-9-ethyl-9H-carbazol-3-yl)-1-(2-methoxyethyl)-4-methyl-1H-benzimidazole-5-carboxylic Acid]	11
CCn1c2ccc(-c3nc4c(C)c(C(=O)OC)ccc4n3CCOC)cc2c2cc(C)cc(F)c21 [Example 3, Methyl 2-(9-ethyl-8-fluoro-6-methyl-9H-carbazol-3-yl)-1-(2-methoxyethyl)-4-methyl-1H-benzimidazole-5-carboxylate]	40
CCn1c2ccc(-c3nc4c(C)c(C(=O)O)ccc4n3CCOC)cc2c2cc(C)cc(F)c21 [Example 4, 2-(9-Ethyl-8-fluoro-6-methyl-9H-carbazol-3-yl)-1-(2-methoxyethyl)-4-methyl-1H-benzimidazole-5-carboxylic Acid]	2.4
CCn1c2ccc(-c3nc4c(C)c(C(=O)O)ccc4n3CCOC)cc2c2cc(F)cc(C)c21 [Example 6, 2-(9-Ethyl-6-fluoro-8-methyl-9H-carbazol-3-yl)-1-(2-methoxyethyl)-4-methyl-1H-benzimidazole-5-carboxylic Acid]	2
CCn1c2ccc(-c3nc4c(F)c(C(=O)O)ccc4n3CCOC)cc2c2cc(F)cc(C)c21 [Example 7, 2-(9-Ethyl-6-fluoro-8-methyl-9H-carbazol-3-yl)-4-fluoro-1-(2-methoxyethyl)-1H-benzimidazole-5-carboxylic Acid]	2.4
CCn1c2ccc(-c3nc4c(F)c(C(=O)O)ccc4n3CCOC)cc2c2cc(C)cc(F)c21 [Example 8, 2-(9-Ethyl-8-fluoro-6-methyl-9H-carbazol-3-yl)-4-fluoro-1-(2-methoxyethyl)-1H-benzimidazole-5-carboxylic Acid]	1.9
CCOC(=O)c1ccc2c(c1)nc(-c1ccc3c(c1)c1cc(C)cc(F)c1n3CC)n2CCOC [Example 9, Ethyl 2-(9-ethyl-8-fluoro-6-methyl-9H-carbazol-3-yl)-1-(2-methoxyethyl)-1H-benzimidazole-5-carboxylate]	62
CCn1c2ccc(-c3nc4cc(C(=O)O)ccc4n3CCOC)cc2c2cc(C)cc(F)c21 [Example 10, 2-(9-Ethyl-8-fluoro-6-methyl-9H-carbazol-3-yl)-1-(2-methoxyethyl)-1H-benzimidazole-5-carboxylic Acid]	1.5
CCn1c2ccc(-c3nc4c(C)c(C(=O)OC)ccc4n3CCOC)cc2c2cc(C)cc(Cl)c21 [Example 11, Methyl 2-(8-chloro-9-ethyl-6-methyl-9H-carbazol-3-yl)-1-(2-methoxyethyl)-4-methyl-1H-benzimidazole-5-carboxylate]	47
CCn1c2ccc(-c3nc4c(C)c(C(=O)O)ccc4n3CCOC)cc2c2cc(C)cc(Cl)c21 [Example 12, 2-(8-Chloro-9-ethyl-6-methyl-9H-carbazol-3-yl)-1-(2-methoxyethyl)-4-methyl-1H-benzimidazole-5-carboxylic Acid]	2.8
